Patent publication US20150315211A1, “SMALL MOLECULES FOR THE MODULATION OF MCL-1 AND METHODS OF MODULATING CELL DEATH, CELL DIVISION, CELL DIFFERENTIATION AND METHODS OF TREATING DISORDERS” (priority 2010, published 2015)
Where two headings read alike, the source gives them in different places.

Legend:
[1] = biological target: BCL-XLΔC (Homo sapiens, UniProt Q07817); test: High-throughput competitive FP binding screen, FITC-BAD BH3/BCL-XLΔC interaction
[2] = test system: MCL-1ΔNΔC; test: High-throughput competitive FP binding screen, FITC-MCL-1 SAHB/MCL-1ΔNΔC interaction
[3] = biological target: MCL-1ΔNΔC (Homo sapiens, UniProt Q07820); test: as above; set-up: the C-terminal alpha-helix was deleted from each of these constructs; GST (N, cleaved yes); made in house
[4] = FITC-BAD BH3/BCL-XLΔC interaction pair, competitive FP screen
[5] = selectivity for MCL-1ΔNΔC over BCL-XLΔC targeting (BCL-XL % Bound minus MCL-1 % Bound)
[6] = FITC-MCL-1 SAHB/MCL-1ΔNΔC interaction pair, competitive FP screen

BCL-XLΔC, sequence (Q07817 1-212 limits assumed, stated change not applied): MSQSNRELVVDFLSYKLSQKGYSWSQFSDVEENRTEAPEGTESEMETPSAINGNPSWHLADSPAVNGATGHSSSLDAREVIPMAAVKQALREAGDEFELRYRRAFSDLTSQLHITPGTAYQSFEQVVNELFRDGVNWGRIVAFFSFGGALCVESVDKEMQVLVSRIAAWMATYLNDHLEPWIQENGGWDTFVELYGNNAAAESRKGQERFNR
MCL-1ΔNΔC (Homo sapiens, UniProt Q07820), sequence (Q07820 172-320 limits assumed, stated change not applied): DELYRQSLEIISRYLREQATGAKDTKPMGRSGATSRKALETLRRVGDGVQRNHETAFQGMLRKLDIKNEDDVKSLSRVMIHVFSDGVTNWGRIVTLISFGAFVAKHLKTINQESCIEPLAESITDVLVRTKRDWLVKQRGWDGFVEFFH

Row | SMILES | BCL-XL % Bound [1, 4] | Spec Values [2, 5] | MCL-1% Bound [3, 6] | BCL-XL % Bound [1] | Spec Values [2] | MCL-1% Bound [3]
1 | COc1ccc(N(C)C(=S)Nc2ccc3nc(-c4ccco4)c(-c4ccco4)nc3c2)cc1 [drawing 44] | 81.17% | 72.84 | 8.332% |  |  | 
2 | Cc1ccc(C)n1-c1cc(Cl)ccc1C(=O)O | 75.93% | 79.84 | −3.914% |  |  | 
3 | Cc1conc1NC(c1cccs1)c1ccc2cccnc2c1O (stereo not drawn) | 103.8% | 45.42 | 58.33% |  |  | 
4 | N#C/C(=C\C=C\c1ccco1)C(N)=S | 63.54% | 55.72 | 7.822% |  |  | 
5 | O=C(OCC1O[C@H](OC(=O)c2cc(O)c(O)c(OC(=O)c3cc(O)c(O)c(O)c3)c2)[C@H](OC(=O)c2cc(O)c(O)c(OC(=O)c3cc(O)c(O)c(O)c3)c2)[C@@H](OC(=O)c2cc(O)c(O)c(OC(=O)c3cc(O)c(O)c(O)c3)c2)[C@@H]1OC(=O)c1cc(O)c(O)c(OC(=O)c2cc(O)c(O)c(O)c2)c1)c1cc(O)c(O)c(OC(=O)c2cc(O)c(O)c(O)c2)c1 (stereo partly drawn) [drawing 178] | 98.26% | 82.32 | 15.94% |  |  | 
6 | O=C(NC(=S)NCc1ccccc1)C1CCCC1 | 92.1% | 46.46 | 45.64% |  |  | 
7 | O=C(CSc1nnc(C2CC2)n1Cc1ccco1)c1cccc(Cl)c1 | 98.2% | 47.06 | 51.14% |  |  | 
8 | CCOC(=O)/C(C#N)=C\c1ccc(N2CCOCC2)cc1 | 78.1% | 96.6 | −18.5% |  |  | 
9 | Clc1cccc2c(N3CCCCCC3)cnnc12 | 85.37% | 63.59 | 21.78% |  |  | 
10 | CCC(c1nnc(SCC(=O)NCCc2ccc(Cl)cc2Cl)o1)N(C)C (stereo not drawn) | 101.6% | 52.14 | 49.44% |  |  | 
11 | CC(C)(C)c1ccc(-c2nnc(S)[nH]2)cc1 | 96.8% | 48.83 | 47.97% |  |  | 
12 | Cc1nn(C)c2nc(NNC(=O)c3cccc(C(F)(F)F)c3)ccc12 | 107.3% | 50.23 | 57.07% |  |  | 
13 | COC(=O)c1cc(OC(=O)c2ccccc2Br)n(C)n1 | 103.1% | 72.92 | 30.23% |  |  | 
14 | CCOc1ccc(NC(=O)CC2C(=O)N(Cc3ccco3)C(=S)N2CCNC(C)=O)cc1 (stereo not drawn) | 102.4% | 82.72 | 19.69% |  |  | 
15 | CCN1C(=O)C(=Cc2cccn2C)C(=O)N(CC)C1=S |  |  |  | 105.7% | 53.66 | 52.01%
16 | N#Cc1cc2c([nH]c1=S)CCC2 | 86.64% | 54.04 | 32.6% |  |  | 
17 | COC(=O)c1ccc(C(c2cc3c(cc2O)OCO3)N2CCN(c3ccccc3)CC2)cc1 (stereo not drawn) | 96.46% | 47.71 | 48.75% |  |  | 
18 | Cc1ccccc1OCC1=NN2C(=N)/C(=C\c3cccn3-c3cccc(Cl)c3)C(=O)N=C2S1 | 92.89% | 67.61 | 25.28% |  |  | 
19 | Cc1ccnc(NC(c2ccco2)c2c(C)[nH]c3ccccc23)c1 (stereo not drawn) | 94.99% | 45.19 | 49.8% |  |  | 
20 | Oc1ccc(SSc2ccc(O)cc2)cc1 | 104.4% | 46.28 | 58.12% |  |  | 
21 | Nc1c(C(=O)NCc2ccco2)c2nc3ccccc3nc2n1CCc1ccccc1F |  |  |  | 99.9% | 93.2 | 6.6%
22 | CC1CCC(C(C)C)C(OC(=O)COC(=O)c2ccc(O)cc2)C1 (stereo not drawn) | 106.5% | 50.73 | 55.74% |  |  | 

Row | SMILES | BCL-XL % Bound [1, 4] | Spec Values [2, 5] | MCL-1% Bound [3, 6] | BCL-XL % Bound [1] | Spec Values [2] | MCL-1% Bound [3]
23 | N#CSC(C#N)Cc1ccccc1 (stereo not drawn) | 103.6% | 53.23 | 50.39% |  |  | 
24 | CC1=C(C#N)C(=O)N(CC(C)O)C(=O)/C1=C/c1ccc(-c2ccc(C(=O)OC(C)C)cc2)o1 (stereo not drawn) | 107.7% | 77.49 | 30.2% |  |  | 
25 | C=CCSc1nnc(-c2ccc(C(C)(C)C)cc2)n1Cc1ccco1 | 122.3% | 52.3 | 69.99% |  |  | 
26 | CCOc1cc(/C=C(/C#N)c2cccc(Br)c2)ccc1OCc1ccc(C(=O)O)o1 | 85.88% | 50.28 | 35.61% |  |  | 
27 | COC(=O)C1C(=O)NC(S)=C(C#N)C1c1ccccc1Cl (stereo not drawn) | 94.15% | 47.12 | 47.02% |  |  | 
28 | CC1=C(C#N)C(=O)N(CCc2ccccc2)C(=O)/C1=C/c1ccc(-c2ccc(S(N)(=O)=O)cc2)o1 | 97.35% | 90.31 | 7.037% |  |  | 
29 | O=c1cc(-c2ccccc2)oc2cc(O)c(O)c(O)c12 [Baicailen, reference compound] | 104.2% | 93.84 | 10.32% |  |  | 
30 | C/C(=N\NC(=S)Nc1ccccc1C)c1ccc(O)cc1 | 103.4% | 52.6 | 50.82% |  |  | 
31 | CN(C)c1ccc2cccc(O)c2n1 | 95.09% | 53.86 | 41.22% |  |  | 
32 | O=c1[nH]cnc2ccc(Br)cc12 | 93.69% | 59.02 | 34.67% |  |  | 
33 | O=C(OCc1ccc(F)cc1)c1cc(-c2ccco2)nc2ccccc12 | 101.6% | 79.65 | 21.94% |  |  | 
34 | O=C(/C=C/c1ccco1)Nc1ccc2ccccc2c1 | 112.7% | 48.07 | 64.64% |  |  | 
35 | O=c1c(O)c(-c2cc(O)c(O)c(O)c2)oc2cc(O)cc(O)c12 [drawing 222] | 102.4% | 68.23 | 34.13% |  |  | 
36 | CCN(CC)c1ccc(C2C(C#N)=C(N)N(c3cccc(C)c3)C3=C2C(=O)CCC3)cc1 (stereo not drawn) | 98.46% | 45.46 | 53.01% |  |  | 
37 | Cc1nc2sccn2c1-c1nc(-c2ccc(Br)o2)c(C(=O)c2ccc3c(c2)OCCO3)s1 | 93.3% | 53.55 | 39.75% |  |  | 
38 | Cn1c(S)nnc1CNc1cccc(C(F)(F)F)c1 | 102.2% | 47.12 | 55.09% |  |  | 
39 | Cc1ccc(CN(C)C(=O)c2ccccc2OCCOc2ccccc2)o1 | 114.2% | 45.38 | 68.8% |  |  | 
40 | O=C1C(Sc2nc[nH]n2)=CC(NS(=O)(=O)c2ccc(F)cc2)c2ccccc21 (stereo not drawn) | 96.12% | 91.16 | 4.952% |  |  | 
41 | C/N=c1\scc(-c2c[nH]c3ccccc23)n1C | 114.1% | 83.96 | 30.17% |  |  | 
42 | CN1CCCN(Cc2cc(C(C)(C)C)c(O)c(C(C)(C)C)c2)CC1 | 83.5% | 58.29 | 25.21% |  |  | 
43 | O=C1C=CC(=O)C(CCCCCCC2=CC(=O)C=CC2=O)=C1 | 106.5% | 59.34 | 47.19% |  |  | 
